# Results taken from patent US12352767B2, “Method of treating cognitive decline associated with neurological diseases based on a decrease in FLT4 expression or activity” (University of Virginia Patent Foundation, priority 2018, dated 2025).
# Entries after “also recorded” stand apart in the source; their conditions may differ.
# Test system: J20 mice
# Assay: Amyloid pathology in meninges and hippocampus of J20 mice (Aβ immunostaining)
# Type: in vivo
# Description: Male or female wild-type mice (C57BL/6J background) were either bred in-house, purchased from the Jackson Laboratory (Bar Harbor, Maine, USA) or provided by the National Institutes of Health/National Institute on Aging (Bethesda, MD, USA). All mice were maintained in the animal facility for habituation for at least 1 week prior to the start of the manipulation/experimentation. C57BL/6J wild-type mice were tested at 2-3, 12-14 and 20-24 months of age. Male hemizygous B6.Cg-Tg(PDGFB-APPSwInd)20Lms/2Mmjax (J20, JAX stock #006293) and B6.Cg-Tg(APPSwFILon,PSEN1*M146L*L286V)6799Vas/Mmjax (5×FAD, JAX stock #008730) were purchased from the Jackson Laboratory and bred in-house on a C57BL/6J background. […] 5×FAD hemizygous mice overexpress the transgene constructs under neural-specific elements of the mouse thymocyte differentiation antigen 1 promoter and present accelerated accumulation of Aβ42 and deposition of amyloid and gliosis in the brain starting at 2 months of age, with dramatic amyloid plaque load without major behavioral deficits at 5 months^45. In-house bred male transgene carriers and non-carrier (WT) littermates were used at different ages that are indicated throughout the manuscript. […]
substance,measurement,setting,value
verteporfin [Visudyne],Aβ aggregates / amyloid deposition in the meninges,Visudyne/photoconversion every 3 weeks for 3 months,Aβ aggregates had formed in the meninges; also recorded: marked amyloid deposition
same,Aβ plaque load (coverage) in the hippocampi,Visudyne/photoconversion for 3 months vs vehicle,significantly increased; also recorded: statistically significant increase in coverage
